Source: patent US20260199323A1, “LIGAND COMPOUNDS FOR E3 UBIQUITIN LIGASE, PROTEIN DEGRADERS DEVELOPED ON BASIS OF LIGAND COMPOUNDS, AND USES THEREOF” (GLUETACS THERAPEUTICS (SHANGHAI) CO., LTD., priority 2021, published 2026)
Like-named read-outs stand apart in the source and are kept apart here. One block for each compound: values may come before it.

Columns and labels:
NCI-H1975 = experiment: CCK-8 tumor cell proliferation, NCI-H1975; assay type: cell-based, Human; conditions: Table 11, designed based on EGFR inhibitors; 96 h
Protocol: (§1) The tumor cells used herein were cultured in a cell culture medium listed in table 4 at 37° C. in an incubator with 5% CO2. Prior to experimentation, all cells used were correctly identified by STR profiling, and tested negative for mycoplasma through routine screenings.
(§2) IC50 values of the compounds of the present disclosure (including the compounds in Tables 1 and 3, and compounds of examples) were measured using the Meilun Cell Counting Kit-8 kit from Dalian Meilun Biotech Co., Ltd. Assay details are as follows: tumor cells were seeded in a 96-well plate at a density listed in Table 5. After 24 h, 100 μL of the inoculated cells were treated with 0.5 μL of the compounds of the present disclosure (including the compounds in Tables 1 and 3, and compounds of examples) at 10 different successively decreasing concentrations (starting at the highest concentration of 10 μM; 5-fold serial dilutions). After the cells were treated with the compounds of the present disclosure for a period of time, the cell viability detection reagent was added to the culture medium for cell viability assessment according to the instructions provided with the CCK-8 kit. […] The growth inhibition of the compounds of the present disclosure on cells was plotted by Prism Graphpad software, and the IC50 values of the compounds of the present disclosure were calculated therefrom.

SW620 = experiment: CCK-8 tumor cell proliferation, SW620; assay type: cell-based, Human; conditions: for IC50: Homo sapiens, SW-620, Table 18, FAK inhibitor based, SW620, read-out: IC50 inhibiting proliferation of tumor cells, SW620; for IC50 for inhibiting the proliferation of tumor cells, SW620: Table 8, designed based on ER inhibitors, 96 h
Summary of the method: (§3)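 IC50 derived from CCK-8 cell viability after compound treatment. Dilution series: 10 concentrations, 5-fold apart, from 10 μM. Compound added 24 h post-seeding; culture at 37 °C in 5% CO2.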

PC-9 = experiment: CCK-8 tumor cell proliferation, PC-9; assay type: cell-based, Human; conditions: Homo sapiens; Table 18, FAK inhibitor based; PC-9; read-out: IC50 inhibiting proliferation of tumor cells, PC-9
Mino = experiment: CCK-8 tumor cell proliferation, Mino; assay type: cell-based, Human; conditions: Homo sapiens; Table 18, FAK inhibitor based; Mino; read-out: IC50 inhibiting proliferation of tumor cells, Mino
Summary of the method: as §3

MDA-MB-231 = experiment: CCK-8 tumor cell proliferation, MDA-MB-231; assay type: cell-based, Human; conditions: Homo sapiens; Table 18, FAK inhibitor based; MDA-MB-231; read-out: IC50 inhibiting proliferation of tumor cells, MDA-MB-231
Summary of the method: as §3

Vcap = experiment: CCK-8 tumor cell proliferation, Vcap; assay type: cell-based, Human; conditions: for IC50: Homo sapiens, VCaP, Vcap, read-out: IC50 inhibiting proliferation of tumor cells, Vcap; for IC50 for inhibiting the proliferation of tumor cells, Vcap: Table 8, designed based on ER inhibitors, 96 h
Protocol: as §1, §2

CCRF-CEM = experiment: CCK-8 tumor cell proliferation, CCRF-CEM; assay type: cell-based, Human; design: IC50 for inhibiting the proliferation of tumor cells, CCRF-CEM: scale not given here; conditions: for IC50: Homo sapiens, CCRF-CEM, read-out: IC50 inhibiting proliferation of tumor cells, CCRF-CEM; for IC50 for inhibiting the proliferation of tumor cells, CCRF-CEM: Table 8, designed based on ER inhibitors, 96 h
Summary of the method: as §3

MM.1S = experiment: CCK-8 tumor cell proliferation, MM.1S; assay type: cell-based; conditions: Homo sapiens, MM1.S; Table 18, FAK inhibitor based; MM.1S; read-out: IC50 inhibiting proliferation of tumor cells, MM.1S
Protocol: as §1, §2

Jurkat = experiment: CCK-8 tumor cell proliferation, Jurkat; assay type: cell-based, Human; conditions: Homo sapiens, Table 22, NTRK inhibitor based, read-out: IC50 inhibiting proliferation of tumor cells, Jurkat
Protocol: as §1, §2

CAL-62 = experiment: CCK-8 tumor cell proliferation, CAL-62; assay type: cell-based, Human; design: IC50 for inhibiting the proliferation of tumor cells, CAL-62: scale not given here; conditions: 72 h
Summary of the method: as §3

[1] = Table 11, designed based on EGFR inhibitors
[2] = Table 8, designed based on ER inhibitors

IC50 for inhibiting the proliferation of tumor cells, H1975 (NCI-H1975): A+
SMILES: O=C1CCC(N2Cc3cc(CN4CCN(c5ccc(-c6ccc7c(c6)C(=O)N(C(C(=O)Nc6nccs6)c6cc(F)ccc6O)C7)cc5)CC4)ccc3C2=O)C(=O)N1 (stereo not drawn) [GT-03503, 2-(6-(4-(4-((2-(2,6-dioxopiperidin-3-yl)-1-oxoisoindolin-5-yl)methyl)piperazin-1-yl)phenyl)-1-oxoisoindolin-2-yl)-2-(5-fluoro-2-hydroxyphenyl)-N-(thiazol-2-yl)acetamide]

IC50 (SW620): 100 to 500 nM
IC50 (PC-9): 1000 to 5000 nM
IC50 (Mino): < 50 nM
IC50 (MDA-MB-231): < 50 nM
IC50 (Vcap; Table 18, FAK inhibitor based): 100 to 500 nM
IC50 (CCRF-CEM; Table 18, FAK inhibitor based): 50 to 100 nM
SMILES: CN(Cc1ccc2c(c1)CN(C1CCC(=O)NC1=O)C2=O)C1CCN(c2ccc(Nc3ncc(C(F)(F)F)c(NCc4nccnc4N(C)S(C)(=O)=O)n3)cc2)CC1 (stereo not drawn) [GT-03705, N-(3-(((2-((4-(4-(((2-(2,6-dioxopiperidin-3-yl)-1-oxoisoindolin-5-yl)methyl)(methyl)amino)piperidin-1-yl)phenyl)amino)-5-(trifluoromethyl)pyrimidin-4-yl)amino)methyl)pyrazin-2-yl)-N-methylmethanesulfonamide]

IC50 (SW620): 500 to 1000 nM
IC50 (PC-9): 1000 to 5000 nM
IC50 (Mino): 100 to 500 nM
IC50 (MDA-MB-231): < 50 nM
IC50 (Vcap; Table 18, FAK inhibitor based): 100 to 500 nM
IC50 (CCRF-CEM; Table 18, FAK inhibitor based): 100 to 500 nM
SMILES: CN(c1nccnc1CNc1nc(Nc2ccc(N3CCC(N4CCN(Cc5ccc6c(c5)CN(C5CCC(=O)NC5=O)C6=O)CC4)CC3)cc2)ncc1C(F)(F)F)S(C)(=O)=O (stereo not drawn) [GT-03706, N-(3-(((2-((4-(4-(4-((2-(2,6-dioxopiperidin-3-yl)-1-oxoisoindolin-5-yl)methyl)piperazin-1-yl)piperidin-1-yl)phenyl)amino)-5-(trifluoromethyl)pyrimidin-4-yl)amino)methyl)pyrazin-2-yl)-N-methylmethanesulfonamide]

IC50 (SW620): < 50 nM
IC50 (PC-9): 1000 to 5000 nM
IC50 (Mino): < 50 nM
IC50 (MDA-MB-231): < 50 nM
IC50 (Vcap; Table 18, FAK inhibitor based): < 50 nM
IC50 (MM.1S): < 50 nM
IC50 (CCRF-CEM; Table 18, FAK inhibitor based): < 50 nM
SMILES: CNC(=O)c1ccccc1Nc1cc(Nc2ccc(N3CCN(Cc4cc5c(cc4F)C(=O)N(C4CCC(=O)NC4=O)C5)CC3)cc2OC)ncc1C(F)(F)F (stereo not drawn) [GT-03716, 2-((2-((4-(4-((2-(2,6-dioxopiperidin-3-yl)-6-fluoro-1-oxoisoindolin-5-yl)methyl)piperazin-1-yl)-2-methoxyphenyl)amino)-5-(trifluoromethyl)pyridin-4-yl)amino)-N-methylbenzamide]

IC50 for inhibiting the proliferation of tumor cells, H1975 (NCI-H1975): A+
SMILES: CN(Cc1ccc2c(c1F)CN(C1CCC(=O)NC1=O)C2=O)C1CCN(c2ccc(Nc3ncc4nc(Nc5ccccc5)n(C5CCCC5)c4n3)cc2)CC1 (stereo not drawn) [GT-03858, 3-(5-(((1-(4-((9-cyclopentyl-8-(phenylamino)-9H-purin-2-yl)amino)phenyl)piperidin-4-yl)(methyl)amino)methyl)-4-fluoro-1-oxoisoindolin-2-yl)piperidine-2,6-dione]

IC50 (Jurkat): < 50 nM
IC50 (Vcap; Table 22, NTRK inhibitor based): 50 to 100 nM
IC50 (CCRF-CEM; Table 22, NTRK inhibitor based): < 50 nM
SMILES: O=C1CCC(N2Cc3cc(CN4CCN(c5cccc(-c6cnc7ccc(N8CCC[C@@H]8c8cccc(F)c8)nn67)n5)CC4)c(F)cc3C2=O)C(=O)N1 (stereo partly drawn) [GT-03866, 3-(6-fluoro-5-((4-(6-(6-((R)-2-(3-fluorophenyl)pyrrolidin-1-yl)imidazo[1,2-b]pyridazin-3-yl)pyridin-2-yl)piperazin-1-yl)methyl)-1-oxoisoindolin-2-yl)piperidine-2,6-dione]

IC50 for inhibiting the proliferation of tumor cells, CAL-62 (CAL-62; [1]): A+
IC50 for inhibiting the proliferation of tumor cells, H1975 (NCI-H1975): A+
SMILES: COc1cc(N2CCC(N(C)Cc3ccc4c(c3)CN(C3CCC(=O)NC3=O)C4=O)CC2)c(C)cc1Nc1ncc(Br)c(Nc2ccc3nccnc3c2P(C)(C)=O)n1 (stereo not drawn) [GT-03924, 3-(5-(((1-(4-((5-bromo-4-((5-(dimethylphosphoryl)quinoxalin-6-yl)amino)pyrimidin-2-yl)amino)-5-methoxy-2-methylphenyl)piperidin-4-yl)(methyl)amino)methyl)-1-oxoisoindolin-2-yl)piperidine-2,6-dione]

IC50 for inhibiting the proliferation of tumor cells, CAL-62 (CAL-62; [1]): A+
IC50 for inhibiting the proliferation of tumor cells, H1975 (NCI-H1975): A+
SMILES: COc1cc(N2CCC(N(C)Cc3ccc4c(c3F)CN(C3CCC(=O)NC3=O)C4=O)CC2)c(C)cc1Nc1ncc(Br)c(Nc2ccc3nccnc3c2P(C)(C)=O)n1 (stereo not drawn) [GT-03925, 3-(5-(((1-(4-((5-bromo-4-((5-(dimethylphosphoryl)quinoxalin-6-yl)amino)pyrimidin-2-yl)amino)-5-methoxy-2-methylphenyl)piperidin-4-yl)(methyl)amino)methyl)-4-fluoro-1-oxoisoindolin-2-yl)piperidine-2,6-dione]

IC50 for inhibiting the proliferation of tumor cells, H1975 (NCI-H1975): A+
SMILES: COc1cc(N2CCC(N(C)Cc3cc4c(cc3F)C(=O)N(C3CCC(=O)NC3=O)C4)CC2)c(C)cc1Nc1ncc(Br)c(Nc2ccc3nccnc3c2P(C)(C)=O)n1 (stereo not drawn) [GT-03926, 3-(5-(((1-(4-((5-bromo-4-((5-(dimethylphosphoryl)quinoxalin-6-yl)amino)pyrimidin-2-yl)amino)-5-methoxy-2-methylphenyl)piperidin-4-yl)(methyl)amino)methyl)-6-fluoro-1-oxoisoindolin-2-yl)piperidine-2,6-dione]

IC50 for inhibiting the proliferation of tumor cells, CAL-62 (CAL-62; [1]): A+
IC50 for inhibiting the proliferation of tumor cells, H1975 (NCI-H1975): A+
SMILES: COc1cc(N2CCC(N(C)Cc3cc(F)c4c(c3)CN(C3CCC(=O)NC3=O)C4=O)CC2)c(C)cc1Nc1ncc(Br)c(Nc2ccc3nccnc3c2P(C)(C)=O)n1 (stereo not drawn) [GT-03927, 3-(5-(((1-(4-((5-bromo-4-((5-(dimethylphosphoryl)quinoxalin-6-yl)amino)pyrimidin-2-yl)amino)-5-methoxy-2-methylphenyl)piperidin-4-yl)(methyl)amino)methyl)-7-fluoro-1-oxoisoindolin-2-yl)piperidine-2,6-dione]

IC50 for inhibiting the proliferation of tumor cells, CAL-62 (CAL-62; [2]): A+
IC50 for inhibiting the proliferation of tumor cells, SW620 (SW620): A+
IC50 for inhibiting the proliferation of tumor cells, Vcap (Vcap): A+
IC50 for inhibiting the proliferation of tumor cells, CCRF-CEM (CCRF-CEM): A+
SMILES: CCC(=C(c1ccc(O)cc1)c1ccc(N2CCN(Cc3cc4c(cc3F)C(=O)N(C3CCC(=O)NC3=O)C4)CC2)cc1)c1ccc(O)cc1 (stereo not drawn) [GT-04145, 3-(5-((4-(4-(1,2-bis(4-hydroxyphenyl)but-1-en-1-yl)phenyl)piperazin-1-yl)methyl)-6-fluoro-1-oxoisoindolin-2-yl)piperidine-2,6-dione]

IC50 for inhibiting the proliferation of tumor cells, CAL-62 (CAL-62; [2]): A+
IC50 for inhibiting the proliferation of tumor cells, SW620 (SW620): A+
IC50 for inhibiting the proliferation of tumor cells, Vcap (Vcap): A+
IC50 for inhibiting the proliferation of tumor cells, CCRF-CEM (CCRF-CEM): A+
SMILES: CCC(=C(c1ccc(O)cc1)c1ccc(N2CCN(Cc3cc(F)c4c(c3)CN(C3CCC(=O)NC3=O)C4=O)CC2)cc1)c1ccc(O)cc1 (stereo not drawn) [GT-04146, 3-(5-((4-(4-(1,2-bis(4-hydroxyphenyl)but-1-en-1-yl)phenyl)piperazin-1-yl)methyl)-7-fluoro-1-oxoisoindolin-2-yl)piperidine-2,6-dione]
